Reference: patent US20260042762A1 (Kymera Therapeutics, Inc., priority 2018, published 2026)

Biological target: T1, MerTK (Homo sapiens, UniProt Q12866)
T1 construct: endogenous in cells; host or cells: Jurkat cells
T1 sequence (Q12866 21-999): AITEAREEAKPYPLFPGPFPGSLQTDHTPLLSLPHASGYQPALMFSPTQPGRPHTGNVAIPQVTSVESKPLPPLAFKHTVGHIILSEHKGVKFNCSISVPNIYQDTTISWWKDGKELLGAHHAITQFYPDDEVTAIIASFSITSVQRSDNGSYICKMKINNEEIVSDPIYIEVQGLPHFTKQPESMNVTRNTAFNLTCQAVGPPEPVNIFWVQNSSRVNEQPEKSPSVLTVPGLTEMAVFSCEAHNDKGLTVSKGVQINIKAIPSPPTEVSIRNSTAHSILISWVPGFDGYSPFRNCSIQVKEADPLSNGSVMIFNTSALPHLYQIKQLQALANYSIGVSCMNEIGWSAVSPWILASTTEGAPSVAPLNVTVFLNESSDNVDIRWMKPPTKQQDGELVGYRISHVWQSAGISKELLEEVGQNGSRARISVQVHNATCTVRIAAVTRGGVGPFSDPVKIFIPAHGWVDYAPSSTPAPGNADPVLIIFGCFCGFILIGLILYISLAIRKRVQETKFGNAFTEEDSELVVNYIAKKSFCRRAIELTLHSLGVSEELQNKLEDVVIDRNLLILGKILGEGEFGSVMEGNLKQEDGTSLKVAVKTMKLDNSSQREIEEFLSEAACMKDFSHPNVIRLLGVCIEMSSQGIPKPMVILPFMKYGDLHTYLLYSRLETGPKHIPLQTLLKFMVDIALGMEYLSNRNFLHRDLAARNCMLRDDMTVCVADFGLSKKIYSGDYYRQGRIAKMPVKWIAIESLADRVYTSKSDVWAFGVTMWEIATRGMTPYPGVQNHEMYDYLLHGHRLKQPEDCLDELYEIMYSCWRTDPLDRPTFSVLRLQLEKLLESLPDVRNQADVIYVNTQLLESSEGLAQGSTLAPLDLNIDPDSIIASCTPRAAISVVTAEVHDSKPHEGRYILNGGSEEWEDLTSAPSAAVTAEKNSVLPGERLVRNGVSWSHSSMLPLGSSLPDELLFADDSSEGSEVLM
Assay: MerTk degradation in Jurkat cells (Western blot)
Format: cell-based
Settings: 0.001-1 μM, 4 hour-incubation at 37° C.
Outline: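 Jurkat cells treated 4 h at 37 °C with compound at 0.001-1 μM final. RIPA lysates quantified by BCA, then MerTK probed by Western blot against actin loading control with IR-dye secondaries and Odyssey imaging.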

Row | SMILES | Jurkat Max % MerTK Degradation
1 | Cn1c(=O)n(C2CCC(=O)NC2=O)c2ccc(CCCOCCN3CCCC(N4CCN(Cc5ccc(-c6cn([C@H]7CC[C@H](O)CC7)c7nc(NCCC(F)(F)F)ncc67)cc5)CC4)C3)cc21.O=CO (stereo partly drawn) [I-95, 3-(3-methyl-2-oxo-5-[3-[2-(3-[4-[(4-[7-[trans-4-hydroxycyclohexyl]-2-[(3,3,3-trifluoropropyl)amino]-7H-pyrrolo[2,3-d]pyrimidin-5-yl]phenyl)methyl]piperazin-1-yl]piperidin-1-yl)ethoxy]propyl]-2,3-dihydro-1H-1,3-benzodiazol-1-y1)piperidine-2,6-dione; formic acid] | A (maximum MerTK degradation greater than 50%)

Same assay, conditions: Jurkat, 4 h, 0.001-1 μM, 4 hour-incubation at 37° C., read-out: Jurkat Max % MerTK Degradation

Row | Dmax | SMILES
2 | > 50% | CCCCNc1ncc2c(n1)n([C@H]1CC[C@H](O)CC1)cc2[C@H]1CC[C@H](CN2CCN(CCOCCOCCOCCOCCCc3ccc4c(c3)n(C)c(=O)n4[C@H]3CCC(=O)NC3=O)CC2)CC1 [I-90, 3-[3-methyl-2-oxo-5-[1-(4-[[(1r,4r)-4-[2-(butylamino)-7-[trans-4-hydroxycyclohexy1]-7H-pyrrolo[2,3-d]pyrimidin-5-yl]cyclohexyl]methyl]piperazin-1-yl)-3,6,9,12-tetraoxapentadecan-15-y1]-2,3-dihydro-1H-1,3-benzodiazol-1-yl]piperidine-2,6-dione]
3 | > 50% | Cn1c(=O)n([C@H]2CCC(=O)NC2=O)c2ccc(CCCOCCN3CC(N4CCN(Cc5ccc(-c6cn([C@H]7CC[C@H](O)CC7)c7nc(NCCC(F)(F)F)ncc67)cc5)CC4)C3)cc21 [I-91, 3-(3-methyl-2-oxo-5-[3-[2-(3-[4-[(4-[7-[trans-4-hydroxycyclohexy1]-2-[(3,3,3-trifluoropropyl)amino]-7H-pyrrolo[2,3-d]pyrimidin-5-y1]phenyl)methyl]piperazin-1-yl]azetidin-1-yl)ethoxy]propyl]-2,3-dihydro-1H-1,3-benzodiazol-1-yl)piperidine-2,6-dione; formic acid]
4 | > 50% | Cn1c(=O)n([C@H]2CCC(=O)NC2=O)c2ccc(C#CCOCCN3CC(N4CCN(Cc5ccc(-c6cn([C@H]7CC[C@H](O)CC7)c7nc(NCCC(F)(F)F)ncc67)cc5)CC4)C3)cc21 [I-92, 3-(3-methyl-2-oxo-5-[3-[2-(3-[4-[(4-[7-[trans-4-hydroxycyclohexy1]-2-[(3,3,3-trifluoropropyl)amino]-7H-pyrrolo[2,3-d]pyrimidin-5-yl]phenyl)methyl]piperazin-1-yl]azetidin-1-yl)ethoxy]prop-1-yn-1-y1]-2,3-dihydro-1H-1,3-benzodiazol-1-y1)piperidine-2,6-dione; formic acid]
5 | > 50% | Cn1c(=O)n(C2CCC(=O)NC2=O)c2ccc(CCCOCCN3CCC(N4CCN(Cc5ccc(-c6cn([C@H]7CC[C@H](O)CC7)c7nc(NCCC(F)(F)F)ncc67)cc5)CC4)C3)cc21 (stereo partly drawn) [I-93, 3-(3-methyl-2-oxo-5-[3-[2-(3-[4-[(4-[7-[trans-4-hydroxycyclohexy1]-2-[(3,3,3-trifluoropropyl)amino]-7H-pyrrolo[2,3-d]pyrimidin-5-yl]phenyl)methyl]piperazin-1-yl]pyrrolidin-1-y1)ethoxy]propyl]-2,3-dihydro-1H-1,3-benzodiazol-1-yl)piperidine-2,6-dione; formic acid]
6 | > 50% | Cn1c(=O)n([C@H]2CCC(=O)NC2=O)c2ccc(CCCOCCN3CCC(N4CCN(Cc5ccc(-c6cn([C@H]7CC[C@H](O)CC7)c7nc(NCCC(F)(F)F)ncc67)cc5)CC4)CC3)cc21 [I-94, 3-(3-methyl-2-oxo-5-[3-[2-(4-[4-[(4-[7-[trans-4-hydroxycyclohexyl]-2-[(3,3,3-trifluoropropyl)amino]-7H-pyrrolo[2,3-d]pyrimidin-5-yl]phenyl)methyl]piperazin-1-yl]piperidin-1-yl)ethoxy]propyl]-2,3-dihydro-1H-1,3-benzodiazol-1-y1)piperidine-2,6-dione; formic acid]
7 | > 50% | CCCCNc1ncc2c(C3=CCN(CCOCCOCCOCCOCCCc4ccc5c(c4)n(C)c(=O)n5[C@H]4CCC(=O)NC4=O)CC3)cn([C@H]3CC[C@H](O)CC3)c2n1 [I-96, 3-[5-(1-[4-[2-(butylamino)-7-[trans-4-hydroxycyclohexyl]-7H-pyrrolo[2,3-d]pyrimidin-5-y1]-1,2,3,6-tetrahydropyridin-1-y1]-3,6,9,12-tetraoxapentadecan-15-yl)-3-methyl-2-oxo-2,3-dihydro-1H-1,3-benzodiazol-1-yl]piperidine-2,6-dione; formic acid]
8 | > 50% | CCCCNc1ncc2c(C3CCN(CCOCCOCCOCCOCCCc4ccc5c(c4)n(C)c(=O)n5[C@H]4CCC(=O)NC4=O)CC3)cn([C@H]3CC[C@H](O)CC3)c2n1 [I-97, 3-[5-(1-[4-[2-(butylamino)-7-[trans-4-hydroxycyclohexyl]-7H-pyrrolo[2,3-d]pyrimidin-5-y1]piperidin-1-y1]-3,6,9,12-tetraoxapentadecan-15-y1)-3-methyl-2-oxo-2,3-dihydro-1H-1,3-benzodiazol-1-y1]piperidine-2,6-dione; bis(formic acid)]

The remaining lines, values behind:

Row | SMILES | Dmax
9 | Cn1c(=O)n([C@H]2CCC(=O)NC2=O)c2ccc(CCCOCCCCN3CCN(Cc4ccc(-c5cn(C6CCCCC6)c6nc(NCCC(F)(F)F)ncc56)cc4)CC3)cc21 [I-84, 3-[5-[3-(4-[4-[(4-[7-cyclohexy1-2-[(3,3,3-trifluoropropyl)amino]-7H-pyrrolo[2,3-d]pyrimidin-5-y1]phenyl)methyl]piperazin-1-yl]butoxy)propyl]-3-methyl-2-oxo-2,3-dihydro-1H-1,3-benzodiazol-1-yl]piperidine-2,6-dione] | > 50%
10 | Cn1c(=O)n(C2CCC(=O)NC2=O)c2ccc(C#CCOCCN3CCC(N4CCN(Cc5ccc(-c6cn([C@H]7CC[C@H](O)CC7)c7nc(NCCC(F)(F)F)ncc67)cc5)CC4)C3)cc21 (stereo partly drawn) [I-85, 3-(3-methyl-2-oxo-5-[3-[2-(3-[4-[(4-[7-[trans-4-hydroxycyclohexyl]-2-[(3,3,3-trifluoropropyl)amino]-7H-pyrrolo[2,3-d]pyrimidin-5-yl]phenyl)methyl]piperazin-1-yl]pyrrolidin-1-yl)ethoxy]prop-1-yn-1-y1]-2,3-dihydro-1H-1,3-benzodiazol-1-y1)piperidine-2,6-dione; di(formic acid)] | > 50%
11 | Cn1c(=O)n([C@H]2CCC(=O)NC2=O)c2ccc(C#CCOCCN3CCC(N4CCN(Cc5ccc(-c6cn([C@H]7CC[C@H](O)CC7)c7nc(NCCC(F)(F)F)ncc67)cc5)CC4)CC3)cc21 [I-86, 3-(3-methyl-2-oxo-5-[3-[2-(4-[4-[(4-[7-[trans-4-hydroxycyclohexy1]-2-[(3,3,3-trifluoropropyl)amino]-7H-pyrrolo[2,3-d]pyrimidin-5-yl]phenyl)methyl]piperazin-1-yl]piperidin-1-yl)ethoxy]prop-1-yn-1-yl]-2,3-dihydro-1H-1,3-benzodiazol-1-yl)piperidine-2,6-dione; formic acid] | > 50%
12 | Cn1c(=O)n(C2CCC(=O)NC2=O)c2ccc(C#CCOCCN3CCCC(N4CCN(Cc5ccc(-c6cn([C@H]7CC[C@H](O)CC7)c7nc(NCCC(F)(F)F)ncc67)cc5)CC4)C3)cc21 (stereo partly drawn) [I-87, 3-(3-methyl-2-oxo-5-[3-[2-(3-[4-[(4-[7-[trans-4-hydroxycyclohexyl]-2-[(3,3,3-trifluoropropyl)amino]-7H-pyrrolo[2,3-d]pyrimidin-5-yl]phenyl)methyl]piperazin-1-yl]piperidin-1-yl)ethoxy]prop-1-yn-1-y1]-2,3-dihydro-1H-1,3-benzodiazol-1-y1)piperidine-2,6-dione; formic acid] | > 50%
13 | Cn1c(=O)n([C@H]2CCC(=O)NC2=O)c2ccc(CCCOCCOCCN3CCN(Cc4ccc(-c5cn([C@H]6CC[C@H](O)CC6)c6nc(NCCCF)ncc56)cc4)CC3)cc21 [I-88, 3-(5-[3-[2-(2-[4-[(4-[2-[(3-fluoropropyl)amino]-7-[trans-4-hydroxycyclohexyl]-7H-pyrrolo[2,3-d]pyrimidin-5yl]phenyl)methyl]piperazin-1-yl]ethoxy)ethoxy]propyl]-3-methyl-2-oxo-2,3-dihydro-1H-1,3-benzodiazol-1-yl)piperidine-2,6-dione; formic acid] | > 50%
14 | CCCCNc1ncc2c(n1)n([C@H]1CC[C@H](O)CC1)cc2[C@H]1CC[C@@H](CN2CCN(CCOCCOCCOCCOCCCc3ccc4c(c3)n(C)c(=O)n4[C@H]3CCC(=O)NC3=O)CC2)CC1 [I-89, 3-[3-methyl-2-oxo-5-[1-(4-[[(1s,4s)-4-[2-(butylamino)-7-[trans-4-hydroxycyclohexy1]-7H-pyrrolo[2,3-d]pyrimidin-5-yl]cyclohexyl]methyl]piperazin-1-yl)-3,6,9,12-tetraoxapentadecan-15-yl]-2,3-dihydro-1H-1,3-benzodiazol-1-yl]piperidine-2,6-dione; di(formic acid)] | > 50%
